The supplement of paper PMC11451515

Experiments:
Settings in all cases: 48 h
SEM cells [1] = test: cell viability relative to DMSO control; higher = less cytotoxic
In short: (§1)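 Leukemia cells (NOMO1 or SEM, 500 cells/well; P12-Ichikawa, 1000 cells/well) were seeded in 5 μl in 1536-well plates after at least four passages of adaptation to each medium. They received library compounds in DMSO by pin dosing, 11 threefold points from 47 μM to 0.79 nM. Luminescence with CellTiter-Glo One was read after 48 h at 37°C. Viability is stated per plate relative to DMSO wells, with cell-free wells as background.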

NOMO1 [2] = test: as above
In short: as §1

P12-Ichikawa [3] = test: as above
In short: as §1

SEM cells [4] = test: AUC of viability dose-response curve (% viability x log10 dose units); higher = less sensitive
In short: (§2)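 Seeding of medium-adapted leukemia cells was at 500 or 1000 cells/well in 1536-well plates, followed by 48 h at 37°C with library compounds in DMSO at 11 threefold doses from 47 μM to 0.79 nM. CellTiter-Glo One luminescence was normalised per plate to DMSO and cell-free wells and fitted as a four-parameter log-logistic function of log10 dose. Area under the curve was integrated by trapezoidal rule, with curves exceeding full viability scaled and curves failing quality control removed.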

NOMO1 [5] = test: as above
In short: as §2

P12-Ichikawa [6] = test: as above
In short: as §2

C#CCC(Cc1cnc2nc(N)nc(N)c2n1)c1ccc(C(=O)N[C@@H](CCC(=O)O)C(=O)O)cc1 (some centres undefined)
cell viability [%]
Settings	NOMO1 [2]	P12-Ichikawa [3]	SEM cells [1]
HPLM + 10% dialyzed FBS, 0.000781 µM	124	–	110
HPLM + 10% dialyzed FBS, 0.00234 µM	114	–	113
HPLM + 10% dialyzed FBS, 0.00702 µM	130	–	114
HPLM + 10% dialyzed FBS, 0.0211 µM	128	–	119
HPLM + 10% dialyzed FBS, 0.0632 µM	93.6	–	47
HPLM + 10% dialyzed FBS, 0.19 µM	52	–	48
HPLM + 10% dialyzed FBS, 0.569 µM	45.8	–	39.2
HPLM + 10% dialyzed FBS, 1.71 µM	49.4	–	36.3
HPLM + 10% dialyzed FBS, 5.12 µM	45.1	–	31.9
HPLM + 10% dialyzed FBS, 15.4 µM	54.7	–	38.1
HPLM + 10% dialyzed FBS, 46.1 µM	49.7	–	35.1
RPMI 5 mM glucose + 10% FBS, 0.000781 µM	127	125	113
RPMI 5 mM glucose + 10% FBS, 0.00234 µM	122	119	122
RPMI 5 mM glucose + 10% FBS, 0.00702 µM	122	128	120
RPMI 5 mM glucose + 10% FBS, 0.0211 µM	123	128	118
RPMI 5 mM glucose + 10% FBS, 0.0632 µM	114	44.8	90.6
RPMI 5 mM glucose + 10% FBS, 0.19 µM	97.7	47.4	73.3
RPMI 5 mM glucose + 10% FBS, 0.569 µM	73.9	29.9	74.1
RPMI 5 mM glucose + 10% FBS, 1.71 µM	77.1	27.4	71.9
RPMI 5 mM glucose + 10% FBS, 5.12 µM	78.4	23.9	66.7
RPMI 5 mM glucose + 10% FBS, 15.4 µM	72.4	29	68.1
RPMI 5 mM glucose + 10% FBS, 46.1 µM	74.9	30.8	68
RPMI 5 mM glucose + 10% dialyzed FBS, 0.000781 µM	–	120	105
RPMI 5 mM glucose + 10% dialyzed FBS, 0.00234 µM	–	110	114
RPMI 5 mM glucose + 10% dialyzed FBS, 0.00702 µM	–	115	110
RPMI 5 mM glucose + 10% dialyzed FBS, 0.0211 µM	–	125	107
RPMI 5 mM glucose + 10% dialyzed FBS, 0.0632 µM	–	37.1	27.4
RPMI 5 mM glucose + 10% dialyzed FBS, 0.19 µM	–	25.6	23.5
RPMI 5 mM glucose + 10% dialyzed FBS, 0.569 µM	–	20.2	24.3
RPMI 5 mM glucose + 10% dialyzed FBS, 1.71 µM	–	19.9	23
RPMI 5 mM glucose + 10% dialyzed FBS, 5.12 µM	–	17.2	20.3
RPMI 5 mM glucose + 10% dialyzed FBS, 15.4 µM	–	20.3	22.9
RPMI 5 mM glucose + 10% dialyzed FBS, 46.1 µM	–	19	22.3

AUC of viability dose-response curve
Settings	NOMO1 [5]	P12-Ichikawa [6]	SEM cells [4]
HPLM + 10% dialyzed FBS	307	227	274
RPMI 5 mM glucose + 10% FBS	380	250	358
RPMI 5 mM glucose + 10% dialyzed FBS	265	228	232

CN(C)C(=O)[C@H](O)[C@H](Cc1ccccc1)NC(=O)c1cc2cc(Cl)ccc2[nH]1
cell viability [%]
Settings	NOMO1 [2]	P12-Ichikawa [3]	SEM cells [1]
HPLM + 10% dialyzed FBS, 0.000781 µM	107	98.8	98.5
HPLM + 10% dialyzed FBS, 0.00234 µM	107	110	109
HPLM + 10% dialyzed FBS, 0.00702 µM	115	111	107
HPLM + 10% dialyzed FBS, 0.0211 µM	122	114	118
HPLM + 10% dialyzed FBS, 0.0632 µM	122	119	122
HPLM + 10% dialyzed FBS, 0.19 µM	132	115	119
HPLM + 10% dialyzed FBS, 0.569 µM	144	122	109
HPLM + 10% dialyzed FBS, 1.71 µM	145	127	86.1
HPLM + 10% dialyzed FBS, 5.12 µM	171	119	14
HPLM + 10% dialyzed FBS, 15.4 µM	145	80.3	11.2
HPLM + 10% dialyzed FBS, 46.1 µM	138	43.4	7.62
RPMI 5 mM glucose + 10% FBS, 0.000781 µM	111	95.3	95.8
RPMI 5 mM glucose + 10% FBS, 0.00234 µM	105	112	80.9
RPMI 5 mM glucose + 10% FBS, 0.00702 µM	103	109	81.7
RPMI 5 mM glucose + 10% FBS, 0.0211 µM	103	117	86.3
RPMI 5 mM glucose + 10% FBS, 0.0632 µM	124	119	108
RPMI 5 mM glucose + 10% FBS, 0.19 µM	126	130	94.6
RPMI 5 mM glucose + 10% FBS, 0.569 µM	127	130	104
RPMI 5 mM glucose + 10% FBS, 1.71 µM	109	130	81.2
RPMI 5 mM glucose + 10% FBS, 5.12 µM	123	113	14
RPMI 5 mM glucose + 10% FBS, 15.4 µM	121	68.6	8.95
RPMI 5 mM glucose + 10% FBS, 46.1 µM	112	51.5	6.87
RPMI 5 mM glucose + 10% dialyzed FBS, 0.000781 µM	83.9	99.5	85.2
RPMI 5 mM glucose + 10% dialyzed FBS, 0.00234 µM	109	118	108
RPMI 5 mM glucose + 10% dialyzed FBS, 0.00702 µM	109	118	105
RPMI 5 mM glucose + 10% dialyzed FBS, 0.0211 µM	109	119	100
RPMI 5 mM glucose + 10% dialyzed FBS, 0.0632 µM	113	121	111
RPMI 5 mM glucose + 10% dialyzed FBS, 0.19 µM	115	131	105
RPMI 5 mM glucose + 10% dialyzed FBS, 0.569 µM	132	125	105
RPMI 5 mM glucose + 10% dialyzed FBS, 1.71 µM	133	133	77.9
RPMI 5 mM glucose + 10% dialyzed FBS, 5.12 µM	118	127	18.8
RPMI 5 mM glucose + 10% dialyzed FBS, 15.4 µM	136	94	8.36
RPMI 5 mM glucose + 10% dialyzed FBS, 46.1 µM	126	70	6.18

AUC of viability dose-response curve
Settings	NOMO1 [5]	P12-Ichikawa [6]	SEM cells [4]
HPLM + 10% dialyzed FBS	418	448	359
RPMI 5 mM glucose + 10% FBS	456	442	340
RPMI 5 mM glucose + 10% dialyzed FBS	435	456	359
